Patent publication US20240174622A1, “COMPOUND AND RADIOACTIVE LABELING COMPOUND” (NIHON MEDI-PHYSICS CO., LTD., priority 2021, published 2024)

Experiments:
[1] = target: human serum albumin (HSA) (Homo sapiens, UniProt P02768); assay: Evaluation of binding to albumin (HSA solution, PBS control)
In short: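 Albumin binding read as the split of radioactivity between eluate and retained column fraction after gamma counting. Samples in human albumin or PBS control were centrifuged 2 min at 1500×g, 4° C., through Sephadex G-100 or G-50 spin columns.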

[2] = target: T1, plasma albumin (mouse plasma) (Mus musculus, UniProt P07724); assay: Evaluation of binding to albumin (mouse plasma); conditions: for radioactivity in the eluate (in words): left to stand in mouse plasma
T1 construct: from tissue; host or cells: mouse plasma
T1 sequence (P07724 25-608): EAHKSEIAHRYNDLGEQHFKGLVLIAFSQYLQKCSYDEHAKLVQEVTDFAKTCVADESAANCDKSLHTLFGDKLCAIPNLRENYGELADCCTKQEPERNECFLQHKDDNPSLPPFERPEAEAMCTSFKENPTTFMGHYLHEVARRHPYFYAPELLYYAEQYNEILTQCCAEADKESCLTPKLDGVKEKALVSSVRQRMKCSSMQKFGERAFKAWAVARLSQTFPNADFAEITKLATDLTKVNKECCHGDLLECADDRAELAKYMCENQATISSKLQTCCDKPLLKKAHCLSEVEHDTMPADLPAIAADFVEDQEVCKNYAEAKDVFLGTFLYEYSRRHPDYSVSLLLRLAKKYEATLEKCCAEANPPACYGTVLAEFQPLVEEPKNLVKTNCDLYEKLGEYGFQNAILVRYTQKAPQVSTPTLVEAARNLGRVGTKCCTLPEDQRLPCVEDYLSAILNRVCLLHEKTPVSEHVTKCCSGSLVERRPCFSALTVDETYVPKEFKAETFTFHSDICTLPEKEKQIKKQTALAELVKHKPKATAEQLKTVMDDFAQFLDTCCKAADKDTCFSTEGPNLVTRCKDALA
Protocol: A PBS solution (37 kBq, 50 μL) of [^111In]In-PSMA-DA1 or [^111In]In-PSMA-DB was added to 200 μL of PBS, mouse plasma, human plasma, or a human serum albumin (HSA) solution (45 mg/mL) in PBS, respectively, and the mixtures were allowed to stand at 37° C. for 10 minutes. Thereafter, the reaction liquids were added to a spin column ([…]; manufactured by Cytiva), and centrifuged at 1500×g at 4° C. for 2 minutes. After separation, the radioactivity for each of the column and the eluate was measured with a gamma counter.
When a compound to be evaluated binds to albumin to form a composite, the compound passes through the column because of the increased molecular size.
As in Example 1-1 described above, PBS, mouse plasma, human plasma, and human albumin were used to evaluate binding to albumin. Evaluation was carried out by the same experimental procedure and statistical method as in Example 1-1, except that a PBS solution (37 kBq, 50 μL) of [^111In]In-PtDA was used.
Thereafter, the reaction liquid was added to a spin column (Sephadex G-50; manufactured by Cytiva), and centrifuged at 1500×g at 4° C. for 2 minutes. After separation, the radioactivity of the column and the eluate was measured with a gamma counter.

[3] = left to stand in HSA solution (45 mg/mL)

human serum albumin (HSA), sequence (P02768 25-609): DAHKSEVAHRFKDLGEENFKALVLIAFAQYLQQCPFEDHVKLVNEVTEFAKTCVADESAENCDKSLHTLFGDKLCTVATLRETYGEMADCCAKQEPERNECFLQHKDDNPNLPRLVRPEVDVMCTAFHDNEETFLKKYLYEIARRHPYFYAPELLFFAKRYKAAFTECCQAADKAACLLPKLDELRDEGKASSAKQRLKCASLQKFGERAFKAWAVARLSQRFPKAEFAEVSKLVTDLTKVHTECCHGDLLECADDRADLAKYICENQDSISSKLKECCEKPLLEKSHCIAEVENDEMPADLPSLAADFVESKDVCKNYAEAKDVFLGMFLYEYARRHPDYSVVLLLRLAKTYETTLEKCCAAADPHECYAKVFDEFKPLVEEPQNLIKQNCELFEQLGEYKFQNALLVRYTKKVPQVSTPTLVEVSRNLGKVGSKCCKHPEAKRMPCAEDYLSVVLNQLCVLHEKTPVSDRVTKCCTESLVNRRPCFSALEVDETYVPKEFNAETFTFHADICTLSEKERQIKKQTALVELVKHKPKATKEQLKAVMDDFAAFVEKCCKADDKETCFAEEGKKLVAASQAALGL

Compound	radioactivity in the eluate (in words) [1, 3]	radioactivity in the eluate (in words) [2]	radioactivity in the eluate (in words) ([1]; left to stand in PBS)	further results
O=C([O-])CN(Cc1cccc(C(=O)[O-])n1)C[C@H](Cc1ccc(NC(=O)[C@H](CCCCNC(=O)CCC(=O)NCCCC[C@H](NC(=O)N[C@@H](CCC(=O)O)C(=O)O)C(=O)O)NC(=O)CCCc2ccc(I)cc2)cc1)N(CC(=O)[O-])Cc1cccc(C(=O)[O-])n1.[111In+3] [[^111In]In-Octapa-2]	significantly higher	–	–	–
O=C([O-])CN1CCN(C(CCC(=O)NCCCC[C@H](NC(=O)N[C@@H](CCC(=O)O)C(=O)O)C(=O)O)C(=O)[O-])CCN(CC(=O)[O-])CCN(C(CCC(=O)N[C@@H](CCCCNC(=O)CCCc2ccc(I)cc2)C(=O)O)C(=O)[O-])CC1.[111In+3] (stereo partly drawn) [[^111In]In-PSMA-DA1]	significantly higher	significantly higher	no significant radioactivity	–
O=C([O-])CN1CCN(C(CCC(=O)NCCCC[C@H](NC(=O)N[C@@H](CCC(=O)O)C(=O)O)C(=O)O)C(=O)[O-])CCN(CC(=O)[O-])CCN(C(CCC(=O)Nc2ccccc2)C(=O)[O-])CC1.[111In+3] (stereo partly drawn) [[^111In]In-PSMA-DB, reference compound]	–	–	no significant radioactivity	–
O=C(O)CC[C@H](NC(=O)N[C@@H](CCCCNC(=O)[C@H](Cc1ccc2ccccc2c1)NC(=O)[C@H]1CC[C@H](CNC(=O)CCC(C(=O)O)N2CCN(CC(=O)O)CCN(C(CCC(=O)N[C@@H](CCCCNC(=O)CCCc3ccc(I)cc3)C(=O)O)C(=O)O)CCN(CC(=O)O)CC2)CC1)C(=O)O)C(=O)O (stereo partly drawn) [[^111In]In-PSMA-NAT-DA1, metal not drawn]	–	significantly high	–	–
O=C([O-])CN1CCN(C(CCC(=O)NCCC(=O)N2Cc3ccccc3-c3c(nnn3CCOCCOCCOCCOCCC(=O)NCCCC[C@H](NC(=O)N[C@@H](CCC(=O)O)C(=O)O)C(=O)O)-c3ccccc32)C(=O)[O-])CCN(CC(=O)[O-])CCN(C(CCC(=O)N[C@@H](CCCCNC(=O)CCCc2ccc(I)cc2)C(=O)O)C(=O)[O-])CC1.[111In+3] (stereo partly drawn) [[^111In]In-PtDA]	–	–	–	radioactivity in the eluate ([2]; mouse plasma): 67.2%; radioactivity in the eluate ([1]; PBS): 6.9%; radioactivity in the eluate ([1]; human albumin solution): 92.4%
